In brackets after ≈: the same amount, converted by molar mass. Activity calls are given as the source filed them. The calls are words filed in the database; no cut-off is given here.
How the values were obtained:
Cytochrome P450 3A4 = Cytochrome P450 3A4 (Homo sapiens, UniProt P08684); assay: Inhibition of CYP3A4 (unknown origin); assay type: ADME
[1] = Cmax in Sprague-Dawley rat at 1 mg/kg, iv or 3 mg/kg, po by HPLC analysis; assay type: ADME, organism-based; conditions: in vivo
Mus musculus [2] = assay: In vivo inhibition of mTOR pathway in C57BL/6J mouse assessed as reduction in mTORC1/mTORC2 complex by measuring PS6 phosphorylation level at 1 to 10 mg/kg, po measured after 24 hrs by Western blot analysis; assay type: functional, organism-based
[3] = AUC (0 to t) in C57BL/6 mouse at 5 mg/kg, po by HPLC analysis; assay type: ADME, organism-based; conditions: in vivo
[4] = Ratio of drug concentration in brain to plasma in C57BL/6 mouse at 1 mg/kg, iv incubated for 2 hrs by LC-MS/MS analysis; assay type: ADME, organism-based; conditions: read-out: BPR
[5] = Half life in Sprague-Dawley rat at 1 mg/kg, iv or 3 mg/kg, po by HPLC analysis; assay type: ADME, organism-based; conditions: in vivo
[6] = Protein binding in C57BL/6 mouse plasma at 5 uM incubated for 4 hrs by LC-MS/MS analysis; assay type: ADME, cell-free; conditions: read-out: PPB
[7] = Ratio of drug concentration in brain to plasma in C57BL/6 mouse at 1 mg/kg, iv incubated for 0.5 hrs by LC-MS/MS analysis; assay type: ADME, organism-based; conditions: read-out: BPR
[8] = Ratio of drug concentration in brain to plasma in Sprague-Dawley rat at 3 mg/kg, po incubated for 1 hr by LC-MS/MS analysis; assay type: ADME, organism-based; conditions: read-out: BPR
[9] = Ratio of drug concentration in brain to plasma in C57BL/6J mouse at 3 mg/kg, po incubated for 3 hrs by LC-MS/MS analysis; assay type: ADME, organism-based; conditions: read-out: BPR
Mus musculus [10] = assay: In vivo inhibition of mTOR pathway in C57BL/6J mouse assessed as reduction in mTORC1/mTORC2 complex by measuring AKT phosphorylation level at 1 to 10 mg/kg, po measured after 8 hrs by Western blot analysis; assay type: functional, organism-based
[11] = Drug uptake in C57BL/6J mouse plasma at 1 mg/kg, po incubated for 3 hrs by LC-MS/MS analysis; assay type: ADME, organism-based
[12] = target: 3',5'-cyclic-AMP phosphodiesterase 4D (Homo sapiens, UniProt Q08499); assay: Inhibition of PDE4D (unknown origin)
Chain of 3',5'-cyclic-AMP phosphodiesterase 4D (Q08499 whole entry): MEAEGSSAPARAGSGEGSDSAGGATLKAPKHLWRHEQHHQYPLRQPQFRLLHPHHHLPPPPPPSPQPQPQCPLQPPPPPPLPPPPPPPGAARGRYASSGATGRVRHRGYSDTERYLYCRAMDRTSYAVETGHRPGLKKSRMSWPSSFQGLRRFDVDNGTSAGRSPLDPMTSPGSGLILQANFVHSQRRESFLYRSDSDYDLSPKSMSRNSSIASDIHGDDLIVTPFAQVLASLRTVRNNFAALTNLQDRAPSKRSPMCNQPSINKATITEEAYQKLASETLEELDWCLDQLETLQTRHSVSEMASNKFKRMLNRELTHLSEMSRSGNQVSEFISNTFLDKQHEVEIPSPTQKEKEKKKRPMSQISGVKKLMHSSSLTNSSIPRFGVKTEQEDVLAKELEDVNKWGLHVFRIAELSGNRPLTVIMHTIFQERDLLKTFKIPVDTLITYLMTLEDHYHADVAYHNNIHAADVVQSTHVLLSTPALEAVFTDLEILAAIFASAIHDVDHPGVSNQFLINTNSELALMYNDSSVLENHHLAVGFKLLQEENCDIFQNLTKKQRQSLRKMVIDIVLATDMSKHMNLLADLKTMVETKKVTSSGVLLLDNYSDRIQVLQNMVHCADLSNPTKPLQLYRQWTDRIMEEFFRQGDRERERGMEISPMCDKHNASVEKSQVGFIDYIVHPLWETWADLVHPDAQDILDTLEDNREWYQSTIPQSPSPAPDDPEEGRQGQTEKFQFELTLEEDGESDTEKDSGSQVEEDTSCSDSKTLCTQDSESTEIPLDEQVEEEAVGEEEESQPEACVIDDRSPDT

[13] = AUC (0 to t) in C57BL/6 mouse at 1 mg/kg, iv by HPLC analysis; assay type: ADME, organism-based; conditions: in vivo
[14] = Ratio of drug concentration in brain to plasma in C57BL/6 mouse at 1 mg/kg, iv incubated for 7 hrs by LC-MS/MS analysis; assay type: ADME, organism-based; conditions: read-out: BPR
[15] = Drug uptake in C57BL/6J mouse brain at 1 mg/kg, po incubated for 3 hrs by LC-MS/MS analysis; assay type: ADME, organism-based; conditions: read-out: Drug uptake
MDR1 = assay: Efflux ratio of permeability from basolateral to apical over apical to basolateral side in MDCK-MDR1 cells; assay type: ADME, cell-based, Canis lupus familiaris; conditions: dog
Mus musculus [16] = assay: In vivo inhibition of mTOR pathway in C57BL/6J mouse assessed as reduction in mTORC1/mTORC2 complex by measuring AKT phosphorylation level at 1 to 10 mg/kg, po measured after 24 hrs by Western blot analysis; assay type: functional, organism-based
[17] = Ratio of drug concentration in brain to plasma in Sprague-Dawley rat at 3 mg/kg, po incubated for 24 hrs by LC-MS/MS analysis; assay type: ADME, organism-based; conditions: read-out: BPR
[18] = Solubility of compound at pH 6.8; assay type: physicochemical; conditions: buffer
[19] = Volume of distribution at steady state in C57BL/6 mouse at 1 mg/kg, iv or 5 mg/kg, po by HPLC analysis; assay type: ADME, organism-based; conditions: in vivo, read-out: Vdss
Cytochrome P450 2D6 = Cytochrome P450 2D6 (Homo sapiens, UniProt P10635); assay: Inhibition of CYP2D6 (unknown origin); assay type: ADME
[20] = Oral bioavailability in Sprague-Dawley rat at 3 mg/kg by HPLC analysis; assay type: ADME, organism-based; conditions: in vivo
[21] = Oral bioavailability in C57BL/6 mouse at 5 mg/kg by HPLC analysis; assay type: ADME, organism-based; conditions: in vivo
[22] = Selectivity index, ratio of IC50 for ATR (unknown origin) to IC50 for inhibition of mTOR in mouse MEF cells harboring TSC1 deletion mutant; assay type: cell-based
[23] = target: Serine-protein kinase ATM (Homo sapiens, UniProt Q13315); assay: Inhibition of ATM (unknown origin) assessed as reduction in CHK2 phosphorylation by cell based assay
Chain of Serine-protein kinase ATM (Q13315 whole entry): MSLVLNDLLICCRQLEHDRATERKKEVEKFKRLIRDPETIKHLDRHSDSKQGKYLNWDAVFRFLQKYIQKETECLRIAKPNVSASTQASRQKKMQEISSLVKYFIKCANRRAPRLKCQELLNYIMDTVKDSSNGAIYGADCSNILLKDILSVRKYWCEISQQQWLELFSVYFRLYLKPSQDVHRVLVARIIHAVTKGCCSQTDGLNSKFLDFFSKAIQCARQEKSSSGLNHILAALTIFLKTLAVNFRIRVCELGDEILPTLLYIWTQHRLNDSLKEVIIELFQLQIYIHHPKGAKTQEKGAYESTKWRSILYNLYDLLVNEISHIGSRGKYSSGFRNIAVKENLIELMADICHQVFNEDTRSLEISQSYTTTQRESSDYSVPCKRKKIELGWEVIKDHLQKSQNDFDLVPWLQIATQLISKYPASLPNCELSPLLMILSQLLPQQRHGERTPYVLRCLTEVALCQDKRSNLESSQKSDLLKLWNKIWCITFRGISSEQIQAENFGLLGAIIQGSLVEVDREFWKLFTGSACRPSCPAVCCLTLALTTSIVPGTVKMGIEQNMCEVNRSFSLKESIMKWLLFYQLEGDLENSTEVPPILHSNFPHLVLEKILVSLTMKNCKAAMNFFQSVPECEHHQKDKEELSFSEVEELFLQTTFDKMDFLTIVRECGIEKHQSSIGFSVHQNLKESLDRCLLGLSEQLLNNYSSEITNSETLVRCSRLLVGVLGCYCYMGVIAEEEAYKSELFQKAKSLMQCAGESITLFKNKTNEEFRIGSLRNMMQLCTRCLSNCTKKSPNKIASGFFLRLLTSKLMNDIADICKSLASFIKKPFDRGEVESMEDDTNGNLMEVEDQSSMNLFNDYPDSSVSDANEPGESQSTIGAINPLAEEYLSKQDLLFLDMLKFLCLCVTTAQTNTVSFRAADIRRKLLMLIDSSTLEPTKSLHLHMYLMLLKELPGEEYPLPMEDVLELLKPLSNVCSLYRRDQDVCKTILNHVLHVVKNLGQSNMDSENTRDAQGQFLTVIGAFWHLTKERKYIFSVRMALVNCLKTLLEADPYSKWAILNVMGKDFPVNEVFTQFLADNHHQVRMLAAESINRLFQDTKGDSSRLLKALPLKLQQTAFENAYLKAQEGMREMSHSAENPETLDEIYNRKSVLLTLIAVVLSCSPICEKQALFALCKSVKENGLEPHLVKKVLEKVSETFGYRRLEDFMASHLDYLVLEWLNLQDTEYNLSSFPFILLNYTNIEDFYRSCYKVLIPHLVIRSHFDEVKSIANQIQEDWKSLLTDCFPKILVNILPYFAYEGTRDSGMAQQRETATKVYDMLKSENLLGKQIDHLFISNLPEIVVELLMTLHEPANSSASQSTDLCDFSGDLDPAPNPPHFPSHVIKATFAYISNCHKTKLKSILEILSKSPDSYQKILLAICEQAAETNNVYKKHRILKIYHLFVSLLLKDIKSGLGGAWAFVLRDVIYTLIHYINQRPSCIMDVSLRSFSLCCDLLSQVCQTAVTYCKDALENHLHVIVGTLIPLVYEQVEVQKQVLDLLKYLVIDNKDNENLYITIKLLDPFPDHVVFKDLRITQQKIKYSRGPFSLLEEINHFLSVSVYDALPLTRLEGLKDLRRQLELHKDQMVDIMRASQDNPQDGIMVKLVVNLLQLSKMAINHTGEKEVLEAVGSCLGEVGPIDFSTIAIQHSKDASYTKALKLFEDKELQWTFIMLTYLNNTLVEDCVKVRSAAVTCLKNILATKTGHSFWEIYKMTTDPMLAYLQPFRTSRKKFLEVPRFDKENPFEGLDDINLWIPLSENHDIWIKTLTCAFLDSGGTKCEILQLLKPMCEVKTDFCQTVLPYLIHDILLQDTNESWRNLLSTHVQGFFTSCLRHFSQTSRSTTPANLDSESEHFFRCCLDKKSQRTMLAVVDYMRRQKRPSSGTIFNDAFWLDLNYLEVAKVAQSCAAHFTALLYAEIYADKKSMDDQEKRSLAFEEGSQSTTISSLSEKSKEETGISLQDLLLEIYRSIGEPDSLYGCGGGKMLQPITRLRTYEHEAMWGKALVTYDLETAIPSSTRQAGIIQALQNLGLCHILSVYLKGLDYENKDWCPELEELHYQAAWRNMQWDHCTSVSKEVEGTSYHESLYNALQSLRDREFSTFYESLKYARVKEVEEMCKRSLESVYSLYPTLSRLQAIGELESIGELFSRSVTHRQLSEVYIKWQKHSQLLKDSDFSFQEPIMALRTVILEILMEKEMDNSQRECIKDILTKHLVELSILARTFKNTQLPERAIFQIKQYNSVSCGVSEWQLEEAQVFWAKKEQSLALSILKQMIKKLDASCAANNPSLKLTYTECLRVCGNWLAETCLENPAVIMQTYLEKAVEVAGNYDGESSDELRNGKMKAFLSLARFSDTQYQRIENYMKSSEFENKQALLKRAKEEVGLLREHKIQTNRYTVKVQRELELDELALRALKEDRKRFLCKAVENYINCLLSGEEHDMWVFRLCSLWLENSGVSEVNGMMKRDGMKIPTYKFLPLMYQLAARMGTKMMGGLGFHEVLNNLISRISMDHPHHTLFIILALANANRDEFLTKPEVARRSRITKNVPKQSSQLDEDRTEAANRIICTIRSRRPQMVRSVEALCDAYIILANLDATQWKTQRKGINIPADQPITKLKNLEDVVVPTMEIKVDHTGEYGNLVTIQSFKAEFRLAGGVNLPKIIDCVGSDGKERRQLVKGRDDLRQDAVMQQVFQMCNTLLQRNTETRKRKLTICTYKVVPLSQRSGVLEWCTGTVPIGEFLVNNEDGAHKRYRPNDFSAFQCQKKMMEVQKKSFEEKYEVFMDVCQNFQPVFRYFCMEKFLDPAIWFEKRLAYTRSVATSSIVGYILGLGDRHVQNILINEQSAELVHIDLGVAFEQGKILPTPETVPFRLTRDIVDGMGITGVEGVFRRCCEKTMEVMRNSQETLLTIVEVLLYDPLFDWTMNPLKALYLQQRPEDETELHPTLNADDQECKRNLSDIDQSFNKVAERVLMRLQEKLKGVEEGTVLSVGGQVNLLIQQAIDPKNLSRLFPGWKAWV

[24] = Cmax in C57BL/6 mouse at 1 mg/kg, iv or 5 mg/kg, po by HPLC analysis; assay type: ADME, organism-based; conditions: in vivo
Cortical neurone = assay: Inhibition of overgrowth of mouse primary cortical neuron harboring TSC1 deletion mutant at 200 nM incubated for 7 days by immunofluorescence assay; assay type: functional, cell-based
[25] = MRT (0 to t) in C57BL/6 mouse at 1 mg/kg, iv or 5 mg/kg, po by HPLC analysis; assay type: ADME, organism-based; conditions: in vivo
[26] = Tmax in Sprague-Dawley rat at 1 mg/kg, iv or 3 mg/kg, po by HPLC analysis; assay type: ADME, organism-based; conditions: in vivo
[27] = Drug uptake in C57BL/6J mouse brain at 3 mg/kg, po incubated for 3 hrs by LC-MS/MS analysis; assay type: ADME, organism-based; conditions: read-out: Drug uptake
Mus musculus [28] = assay: Protection against C57BL/6J mouse model of neuronal mTOR hyperactivity assessed as survival rate at 10 mg/kg, ip administered on postnatal day 22 daily and measured on postnatal day 52 (reference value: 48 %); assay type: functional
[29] = Drug uptake in C57BL/6J mouse plasma at 10 mg/kg, po incubated for 3 hrs by LC-MS/MS analysis; assay type: ADME, organism-based
[30] = Tmax in C57BL/6 mouse at 1 mg/kg, iv or 5 mg/kg, po by HPLC analysis; assay type: ADME, organism-based; conditions: in vivo
[31] = Selectivity index, ratio of IC50 for DNAPK (unknown origin) to IC50 for inhibition of mTOR in mouse MEF cells harboring TSC1 deletion mutant; assay type: cell-based
[32] = target: Phosphatidylinositol 4,5-bisphosphate 3-kinase catalytic subunit alpha isoform (Homo sapiens, UniProt P42336); assay: Inhibition of PI3Kalpha (unknown origin)
Chain of Phosphatidylinositol 4,5-bisphosphate 3-kinase catalytic subunit alpha isoform (P42336 whole entry, canonical isoform): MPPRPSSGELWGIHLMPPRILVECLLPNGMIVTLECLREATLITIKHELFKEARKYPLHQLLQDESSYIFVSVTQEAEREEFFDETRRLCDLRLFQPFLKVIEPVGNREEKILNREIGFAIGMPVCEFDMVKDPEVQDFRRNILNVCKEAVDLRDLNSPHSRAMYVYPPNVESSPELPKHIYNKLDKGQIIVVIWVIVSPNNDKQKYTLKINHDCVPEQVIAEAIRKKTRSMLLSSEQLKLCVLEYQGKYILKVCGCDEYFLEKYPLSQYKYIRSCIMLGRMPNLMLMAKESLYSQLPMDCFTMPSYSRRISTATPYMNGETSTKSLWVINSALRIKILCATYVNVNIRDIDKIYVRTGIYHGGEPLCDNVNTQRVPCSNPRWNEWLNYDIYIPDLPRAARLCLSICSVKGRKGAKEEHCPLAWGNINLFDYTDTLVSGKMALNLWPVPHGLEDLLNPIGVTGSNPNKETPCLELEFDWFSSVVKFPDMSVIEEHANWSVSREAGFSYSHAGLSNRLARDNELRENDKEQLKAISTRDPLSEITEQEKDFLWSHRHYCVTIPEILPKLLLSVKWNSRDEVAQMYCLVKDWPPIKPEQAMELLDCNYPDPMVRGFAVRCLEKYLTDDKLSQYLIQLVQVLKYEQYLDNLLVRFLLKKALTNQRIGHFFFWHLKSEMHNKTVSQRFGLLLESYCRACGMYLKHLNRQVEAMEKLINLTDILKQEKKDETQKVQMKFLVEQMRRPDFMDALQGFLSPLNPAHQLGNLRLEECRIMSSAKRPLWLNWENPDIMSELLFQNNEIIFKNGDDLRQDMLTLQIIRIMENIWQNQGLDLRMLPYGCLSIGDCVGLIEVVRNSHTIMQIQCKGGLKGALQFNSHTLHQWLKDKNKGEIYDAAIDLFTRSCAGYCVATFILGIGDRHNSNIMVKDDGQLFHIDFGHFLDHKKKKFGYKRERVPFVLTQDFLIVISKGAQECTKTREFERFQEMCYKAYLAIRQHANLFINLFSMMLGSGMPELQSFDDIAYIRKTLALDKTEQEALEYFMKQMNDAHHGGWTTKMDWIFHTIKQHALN

Mus musculus [33] = assay: In vivo inhibition of PI3KCA in C57BL/6J mouse assessed as reduction in AKT phosphorylation Thr308 at 1 to 10 mg/kg, po measured after 24 hrs by Western blot analysis; assay type: functional, organism-based
[34] = MRT (0 to t) in Sprague-Dawley rat at 1 mg/kg, iv or 3 mg/kg, po by HPLC analysis; assay type: ADME, organism-based; conditions: in vivo
[35] = Ratio of drug concentration in brain to plasma in C57BL/6J mouse at 1 mg/kg, po incubated for 3 hrs by LC-MS/MS analysis; assay type: ADME, organism-based; conditions: read-out: BPR
[36] = Selectivity index, ratio of IC50 for PDE4D (unknown origin) to IC50 for inhibition of mTOR in mouse MEF cells harboring TSC1 deletion mutant; assay type: cell-based
[37] = Drug uptake in C57BL/6J mouse brain at 10 mg/kg, po incubated for 3 hrs by LC-MS/MS analysis; assay type: ADME, organism-based; conditions: read-out: Drug uptake

In the case of `C[C@@H]1COCCN1c1nc(N2CCOC[C@@H]2C)nc2sc(-c3cc[nH]n3)nc12`, the K (Cytochrome P450 3A4) is reported as 0.006 min⁻¹, the Cmax [1] is reported as 1120 nM and the inhibition (Mus musculus [2]) is reported as “inactive”. It also gave an AUC(0-t) [3] of 14.9 µM·h, a Kp at 2 h [4] of 1.2 and a half-life [5] of 3.7 h. For the same compound, the fraction unbound at 4 h, 5 µM [6] was under 0.01, the Kp at 0.5 h [7] was 1 and the Kp at 1 h [8] was 4. The Kp at 3 h [9] was 1.1, the inhibition (Mus musculus [10]) was “Active” and the concentration at 3 h [11] was 826 nM. It also gave an IC50 [12] of 210 nM, an AUC(0-t) [13] of 4.41 µM·h and a Kp at 7 h [14] of 1.2. For the same compound, the concentration at 3 h [15] was 929 nM, the efflux ratio (MDR1) was 0.93 and the inhibition (Mus musculus [16]) was “inactive”. It also gave a Kp at 24 h [17] of 3.1, a solubility [18] of 120 µg/mL (≈ 299 µM) and a Vd [19] of 2.3 L/kg. It also gave an IC50 (Cytochrome P450 2D6) of over 50000 nM, a bioavailability [20] of 81% and a bioavailability [21] of 61%. For the same compound, the Ratio IC50 [22] was 70, the IC50 [23] was 20 nM and the Cmax [24] was 2700 nM. The inhibition (Cortical neurone) was “Active”, the MRT last [25] was 2.6 h and the Tmax [26] was 1.5 h. For the same compound, the concentration at 3 h [27] was 2390 nM, the Activity (Mus musculus [28]) was 84% and the concentration at 3 h [29] was 4470 nM. It also gave a Tmax [30] of 1.3 h, a Ratio IC50 [31] of 230 and an IC50 [32] of 2200 nM. The inhibition (Mus musculus [33]) was “inactive”, the MRT last [34] was 4.3 h and the Kp at 3 h [35] was 1.1. For the same compound, the Ratio IC50 [36] was 38 and the concentration at 3 h [37] was 5820 nM.

Reference: ChEMBL document CHEMBL4376889, “Discovery of a Brain-Penetrant ATP-Competitive Inhibitor of the Mechanistic Target of Rapamycin (mTOR) for CNS Disorders” (J Med Chem, 2020)
